In patent US20230365537A1, “POLO LIKE KINASE 4 INHIBITORS” (ORIC Pharmaceuticals, Inc., priority 2021, published 2023):

Legend:
[1] = molecular target: human recombinant Aurora B (Homo sapiens (Human), UniProt Q96GD4); assay: Aurora B Kinase Biochemical Assay (ADP-Glo); settings: ratio of Aurora B IC50 to PLK4 IC50 (selectivity)
How it was run: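 IC50 derived by four-parameter nonlinear fit of ADP-Glo luminescence (ADP produced). Compound was preincubated 15 min at RT with 20 nM recombinant human Aurora B, in 50 mM HEPES pH 7.5, 10 mM MgCl2, 1 mM EGTA, 1 mM DTT, 0.01% Brij-35/BSA.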

[2] = molecular target: human recombinant Aurora A (Homo sapiens (Human), UniProt O14965); assay: Aurora A Kinase Biochemical Assay (ADP-Glo); settings: ratio of Aurora A IC50 to PLK4 IC50 (selectivity)
human recombinant Aurora A, sequence (O14965 whole entry): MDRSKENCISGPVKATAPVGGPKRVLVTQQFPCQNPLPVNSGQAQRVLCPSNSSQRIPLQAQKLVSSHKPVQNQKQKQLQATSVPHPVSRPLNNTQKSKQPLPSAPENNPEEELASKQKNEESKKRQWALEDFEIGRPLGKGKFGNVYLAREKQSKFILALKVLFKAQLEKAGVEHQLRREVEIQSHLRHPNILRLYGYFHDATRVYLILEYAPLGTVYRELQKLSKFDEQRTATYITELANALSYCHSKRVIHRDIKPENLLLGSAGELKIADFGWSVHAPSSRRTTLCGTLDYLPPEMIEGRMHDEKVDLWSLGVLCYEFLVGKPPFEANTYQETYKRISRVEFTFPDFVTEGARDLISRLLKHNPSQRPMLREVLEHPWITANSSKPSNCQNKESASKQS

CHP-134 cells = assay: CHP134 CellTiter-Glo (CTG) Assay; type: cell-based; settings: Homo sapiens, CHP-134, 120 h, 5 days, viable cells by CellTiter-Glo
How it was run: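 Nine-point 1:3 dilution series, diluted into growth media, added in quadruplicate to CHP-134 cells plated 16 h earlier at 200 cells/well.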

human recombinant PLK4 = human recombinant PLK4 (Homo sapiens (Human), UniProt O00444); assay: PLK4 Biochemical Assay (ADP-Glo); settings: 0.5 nM PLK4, 8.0 µM ATP, 4.7 µM MBP, 6 hours at RT
human recombinant PLK4, sequence (O00444 whole entry): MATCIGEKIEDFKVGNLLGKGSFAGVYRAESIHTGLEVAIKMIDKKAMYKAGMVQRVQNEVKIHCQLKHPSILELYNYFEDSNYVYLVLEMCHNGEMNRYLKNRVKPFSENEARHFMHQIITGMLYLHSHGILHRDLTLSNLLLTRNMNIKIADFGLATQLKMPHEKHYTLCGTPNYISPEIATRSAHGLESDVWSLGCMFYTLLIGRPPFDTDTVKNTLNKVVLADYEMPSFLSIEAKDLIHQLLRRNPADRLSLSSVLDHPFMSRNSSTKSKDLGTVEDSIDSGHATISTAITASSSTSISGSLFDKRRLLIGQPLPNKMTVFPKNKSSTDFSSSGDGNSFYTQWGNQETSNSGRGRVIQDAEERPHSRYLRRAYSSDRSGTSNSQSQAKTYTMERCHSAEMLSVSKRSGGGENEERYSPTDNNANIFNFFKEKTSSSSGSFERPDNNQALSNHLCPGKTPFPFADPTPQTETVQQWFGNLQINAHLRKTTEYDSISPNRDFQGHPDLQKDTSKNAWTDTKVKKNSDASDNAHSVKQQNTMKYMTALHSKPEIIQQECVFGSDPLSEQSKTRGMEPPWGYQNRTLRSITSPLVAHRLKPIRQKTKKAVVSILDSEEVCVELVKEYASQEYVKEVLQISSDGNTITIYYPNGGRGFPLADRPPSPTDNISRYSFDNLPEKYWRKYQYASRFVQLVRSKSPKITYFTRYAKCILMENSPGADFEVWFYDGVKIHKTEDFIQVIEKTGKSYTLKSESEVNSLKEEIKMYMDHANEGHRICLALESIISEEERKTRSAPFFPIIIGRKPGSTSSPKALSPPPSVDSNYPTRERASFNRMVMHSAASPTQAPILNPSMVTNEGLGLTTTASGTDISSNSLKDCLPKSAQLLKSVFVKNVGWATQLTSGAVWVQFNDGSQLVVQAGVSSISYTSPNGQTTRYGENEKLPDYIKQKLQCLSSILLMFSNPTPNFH
How it was run: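 Luminescent ADP-Glo detection quantified ADP production, with ATP depletion for 40 min and detection for 30 min at room temperature. Compound and PLK4 (1.0 nM stock addition) were preincubated 15 min in HEPES pH 7.5 buffer containing MgCl2, EGTA, DTT, Brij-35 and BSA. IC50 values were obtained by four-parameter nonlinear regression.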

human recombinant Aurora B, sequence (Q96GD4 whole entry): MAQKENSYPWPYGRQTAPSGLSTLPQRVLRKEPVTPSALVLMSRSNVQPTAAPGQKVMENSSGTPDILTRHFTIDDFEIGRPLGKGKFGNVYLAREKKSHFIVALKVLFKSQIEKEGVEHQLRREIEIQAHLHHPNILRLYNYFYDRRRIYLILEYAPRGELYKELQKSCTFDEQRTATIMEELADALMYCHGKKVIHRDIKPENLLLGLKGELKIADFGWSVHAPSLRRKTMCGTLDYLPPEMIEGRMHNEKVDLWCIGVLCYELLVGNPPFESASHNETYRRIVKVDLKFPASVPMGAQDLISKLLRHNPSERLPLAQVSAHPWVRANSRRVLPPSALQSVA

Row | [Aurora B IC50 (nM)]/[PLK4 IC50 (nM)] [1] | [Aurora A IC50 (nM)]/[PLK4 IC50 (nM)] [2] | IC50 (human recombinant PLK4) | Structure (SMILES) | IC50 (CHP-134 cells)
1 | 319.6476 | 1730.3523 | 0.738 nM | COc1ccc2c(c1)[C@]1(C[C@H]1c1ccc3c(Nc4ccc(C(=O)N5[C@H](C)CCC[C@@H]5C)nc4OC)n[nH]c3c1)C(=O)N2 [Example 245, (1R,2S)-2-[3-({6-[(2R,6S)-2,6-dimethylpiperidine-1-carbonyl]-2-methoxypyridin-3-yl}amino)-1H-indazol-6-yl]-5′-methoxyspiro[cyclopropane-1,3′-indol]-2′(1′H)-one] | 131 nM
2 | 176.8683 | 426.8090 | 0.843 nM | COc1ccc2c(c1)[C@]1(C[C@H]1c1ccc3c(Nc4ccc(C(=O)N5CC6CCC(C5)O6)nc4OC)n[nH]c3c1)C(=O)N2 [Example 246, (1R,2S)-5′-methoxy-2-(3-{[2-methoxy-6-(8-oxa-3-azabicyclo[3.2.1]octane-3-carbonyl)pyridin-3-yl]amino}-1H-indazol-6-yl)spiro[cyclopropane-1,3′-indol]-2′(1′H)-one] | 68.4 nM
3 | 423.6743 | 1434.9223 | 3.73 nM | COc1ccc2c(c1)[C@]1(C[C@H]1c1ccc3c(Nc4ncc(S(C)(=O)=O)cc4Cl)n[nH]c3c1)C(=O)N2 [Example 247, (1R,2S)-2-(3-{[3-chloro-5-(methanesulfonyl)pyridin-2-yl]amino}-1H-indazol-6-yl)-5′-methoxyspiro[cyclopropane-1,3′-indol]-2′(1′H)-one] | 1010 nM
4 | 206.5375 | 683.4543 | 1.24 nM | COc1ccc2c(c1)[C@]1(C[C@H]1c1ccc3c(Nc4ncc(S(=O)(=O)C(C)C)cc4OC)n[nH]c3c1)C(=O)N2 [Example 248, (1R,2S)-5′-Methoxy-2-(3-{[3-methoxy-5-(propane-2-sulfonyl)pyridin-2-yl]amino}-1H-indazol-6-yl)spiro[cyclopropane-1,3′-indol]-2′(1′H)-one] | 120 nM
5 | 268.6936 | 1734.2342 | 1.33 nM | COc1ccc2c(c1)[C@]1(C[C@H]1c1ccc3c(Nc4ccc(C(=O)N(C)C)nc4Cl)n[nH]c3c1)C(=O)N2 [Example 251, 6-chloro-5-({6-[(1R,2S)-5′-methoxy-2′-oxo-1′,2′-dihydrospiro[cyclopropane-1,3′-indol]-2-yl]-1H-indazol-3-yl}amino)-N,N-dimethylpyridine-2-carboxamide] | 287 nM
6 | 96.18 | 297.6878 | 5.19 nM | COc1ccc2c(c1)[C@]1(C[C@H]1c1ccc3c(Nc4ncc(C5CS(=O)(=O)C5)nc4OC)n[nH]c3c1)C(=O)N2 [Example 254, 3-[6-methoxy-5-({6-[(1R,2S)-5′-methoxy-2′-oxo-1′,2′-dihydrospiro[cyclopropane-1,3′-indol]-2-yl]-1H-indazol-3-yl}amino)pyrazin-2-yl]-1λ6-thietane-1,1-dione] | 2160 nM
7 | 566.4948 | 840.1202 | 1.16 nM | COc1ccc2c(c1)[C@]1(C[C@H]1c1ccc3c(Nc4ncc(S(=O)(=O)N5CCOCC5)cc4OC)n[nH]c3c1)C(=O)N2 [Example 255] | 380 nM
8 | 1153 | 1143.4287 | 0.65 nM | COc1ccc2c(c1)[C@]1(C[C@H]1c1ccc3c(Nc4ncc(S(=O)(=O)N5CC6CCC(C5)O6)cc4OC)n[nH]c3c1)C(=O)N2 [Example 256, (1R,2S)-5′-methoxy-2-(3-{[3-methoxy-5-(8-oxa-3-azabicyclo[3.2.1]octane-3-sulfonyl)pyridin-2-yl]amino}-1H-indazol-6-yl)spiro[cyclopropane-1,3′-indol]-2′(1′H)-one] | 310 nM
9 | 324.5524 | 1259.8465 | 3.91 nM | CCP(=O)(CC)c1ccc(Nc2n[nH]c3cc([C@@H]4C[C@@]45C(=O)Nc4ccc(OC)cc45)ccc23)c(OC)n1 [Example 257, (1R,2S)-2-(3-{[6-(diethylphosphoryl)-2-methoxypyridin-3-yl]amino}-1H-indazol-6-yl)-5′-methoxyspiro[cyclopropane-1,3′-indol]-2′(1′H)-one] | 1590 nM
10 | 464.7558 | 1100.4954 | 1.41 nM | COc1ccc2c(c1)[C@]1(C[C@H]1c1ccc3c(Nc4ncc(S(=O)(=O)C5CC5)cc4OC)n[nH]c3c1)C(=O)N2 [Example 258, (1R,2S)-2-(3-{[5-(Cyclopropanesulfonyl)-3-methoxypyridin-2-yl]amino}-1H-indazol-6-yl)-5′-methoxyspiro[cyclopropane-1,3′-indol]-2′(1′H)-one] | 168 nM
11 | 835.2904 | 1294.8084 | 0.971 nM | COc1ccc2c(c1)[C@]1(C[C@H]1c1ccc3c(Nc4ncc(S(=O)(=O)C5CCOCC5)cc4OC)n[nH]c3c1)C(=O)N2 [Example 259, (1R,2S)-5′-methoxy-2-(3-{[3-methoxy-5-(oxane-4-sulfonyl)pyridin-2-yl]amino}-1H-indazol-6-yl)spiro[cyclopropane-1,3′-indol]-2′(1′H)-one] | 900 nM
12 | 526.7 | 3488.1209 | 1.39 nM | CCS(=O)(=O)c1cc(OC)c(Nc2n[nH]c3cc([C@@H]4C[C@@]45C(=O)Nc4ccc(OC)cc45)ccc23)cn1 [Example 262, (1R,2S)-2-(3-{[6-(ethanesulfonyl)-4-methoxypyridin-3-yl]amino}-1H-indazol-6-yl)-5′-methoxyspiro[cyclopropane-1,3′-indol]-2′(1′H)-one] | 507 nM
13 | 181.6923 | 1133.6923 | 0.65 nM | COc1ccc2c(c1)[C@]1(C[C@H]1c1ccc3c(Nc4ncc(C(=O)N5CCC5)cc4OC)n[nH]c3c1)C(=O)N2 [Example 263, (1R,2S)-2-(3-{[5-(azetidine-1-carbonyl)-3-methoxypyridin-2-yl]amino}-1H-indazol-6-yl)-5′-methoxyspiro[cyclopropane-1,3′-indol]-2′(1′H)-one] | 599 nM
14 | 66.6751 | 307.8980 | 0.785 nM | COc1ccc2c(c1)[C@]1(C[C@H]1c1ccc3c(Nc4ncc(C(=O)N5CCOCC5)cc4OC)n[nH]c3c1)C(=O)N2 [Example 264, (1R,2S)-5′-methoxy-2-(3-{[3-methoxy-5-(morpholine-4-carbonyl)pyridin-2-yl]amino}-1H-indazol-6-yl)spiro[cyclopropane-1,3′-indol]-2′(1′H)-one] | 860 nM
15 | 725.3912 | 686 | 1.98 nM | COc1ccc2c(c1)[C@]1(C[C@H]1c1ccc3c(Nc4cc5c(cc4OC)C(=O)N(C)C5)n[nH]c3c1)C(=O)N2 [Example 265, (1R,2S)-5′-methoxy-2-{3-[(6-methoxy-2-methyl-1-oxo-2,3-dihydro-1H-isoindol-5-yl)amino]-1H-indazol-6-yl)spiro[cyclopropane-1,3′-indol]-2′(1′H)-one] | 1070 nM
16 | 154.9914 | 723.9761 | 2.34 nM | COc1ccc2c(c1)[C@]1(C[C@H]1c1ccc3c(Nc4ccc5c(c4OC)CN(C)C5=O)n[nH]c3c1)C(=O)N2 [Example 266, (1R,2S)-5′-methoxy-2-{3-[(4-methoxy-2-methyl-1-oxo-2,3-dihydro-1H-isoindol-5-yl)amino]-1H-indazol-6-yl}spiro[cyclopropane-1,3′-indol]-2′(1′H)-one] | 792 nM
17 | 406.8833 | 789.0376 | 1.57 nM | COc1ccc2c(c1)[C@]1(C[C@H]1c1ccc3c(Nc4ncc(S(=O)(=O)N5CCCO5)cc4OC)n[nH]c3c1)C(=O)N2 [Example 267, (1R,2S)-5′-methoxy-2-(3-{[3-methoxy-5-(1,2-oxazolidine-2-sulfonyl)pyridin-2-yl]amino}-1H-indazol-6-yl)spiro[cyclopropane-1,3′-indol]-2′(1′H)-one] | 325 nM
18 | 769.9084 | 1159 | 0.874 nM | COc1ccc2c(c1)[C@]1(C[C@H]1c1ccc3c(Nc4ncc(S(=O)(=O)N5CCC5)cc4OC)n[nH]c3c1)C(=O)N2 [Example 268, (1R,2S)-2-(3-{[5-(azetidine-1-sulfonyl)-3-methoxypyridin-2-yl]amino}-1H-indaxol-6-yl)-5′-methoxyspiro[cyclopropane-1,3′-indol]-2′(1′H)-one] | 124 nM
